Assay results published in patent publication US20140178461A1, “COMPOUNDS AND COMPOSITIONS FOR USE IN THE TREATMENT AND PREVENTION OF LUNG AND BRAIN CANCER AND PRECANCEROUS CONDITIONS THEREOF” (priority 2012, published 2014).
Where two headings read alike, the source gives them in different places.

Tests used:
[1] = Biodistribution of liposomal phospho-ibuprofen amide 1 in mice after i.v. administration; format: in vivo; settings: single 200 mg/kg i.v. dose, 1 h
[2] = tested on: A549 human non-small lung cancer cells; assay: Orthotopic A549-GFP lung tumor model in Ncr nude mice (efficacy of phospho-ibuprofen amide 1); format: in vivo; settings: 200 mg/kg once a week for 8 weeks; compound 1 liposomal; versus control
[3] = set-up: AUC in plasma: unit not given beside the values; settings: mouse, in vivo, inhaled or intranasal
[4] = tested on: U87 cells; assay: Inhibition of glioblastoma cell line U87, 24-h growth inhibitory concentration; format: cell-based, human; settings: 24-hour growth inhibition
[5] = in vivo; settings: mouse, ip, 58 mg/kg
[6] = tested on: Salmonella Typhimurium (TA98 and TA100); assay: Genotoxicity, reverse mutations in Salmonella with and without rat liver S9; settings: strains TA98 and TA100, presence and absence of rat liver S9
[7] = Pharmacokinetics study of PTI 93 in mice (plasma levels); settings: single i.p. dose of 100 mg/kg PTI 93, mice
[8] = tested on: heart tissue; assay: Cardiotoxicity, histology of heart tissue sections from treated mice; settings: mice treated for about 1.5 months
[9] = tested on: A549 human non-small cell lung cancer cells; assay: Subcutaneous A549 xenograft in NOD SCID mice (efficacy of PTI 93); format: in vivo, mouse; settings: end of study, factoring in the 0 time value
Procedure: A549 human non-small cell lung cancer cells (1.5×10^5) were injected subcutaneously in the left and right flanks of 5-6-week-old female NOD SCID mice (Taconic Farms, Germantown, N.Y.). When the average tumor volume reached 100 mm^3, mice were treated by oral gavage of 10 or 15 mg/kg/day PTI 93 or vehicle (corn oil) for 2 weeks, when they were sacrificed and the tumors were harvested.

[10] = tested on: U87 glioblastoma cells; assay: Apoptosis, Annexin V-FITC/PI staining by FACS; format: cell-based, human

**Q.** With `CCOP(=O)(OCC)OCCCCNC(=O)C(C)c1ccc(CC(C)C)cc1` (stereo not shown) [phospho-ibuprofen amide 1, Phosphoric acid diethyl ester 4-[2-(4-isobutyl-phenyl)-propionylamino]-butyl ester] as the molecule, how does the “biodistribution (drug concentration in blood and major organs)” value [1] read?
**A.** Its value is “preferentially accumulated in lungs”.

**Q.** And the “reduction based on lung tumor weight (lung weight)” value [2]?
**A.** The value was 80%.

**Q.** And the “reduction of lung cancer based on fluorescence” value [2]?
**A.** Its value is 95%.

**Q.** What does the source list for `CSc1ccc(/C=C2/C(C)=C(CC(=O)O)c3cc(F)ccc32)cc1` [Sulindac sulfide 131, sulindac sulfide]?
**A.** AUC in plasma ([3]; BALB/c nude): 66.9; AUC in lung [3]: 18.9 nmol·h/g

**Q.** What does the source list for `CC1=C(CC(=O)O)c2cc(F)ccc2/C1=C\c1ccc([S+](C)[O-])cc1` (stereo not shown) [Sulindac, sulindac]?
**A.** AUC in lung [3]: 30.1 nmol·h/g; AUC in plasma [3]: 49.5; Tmax in lung [3]: 0 h; Tmax in plasma [3]: 0 h; IC50 [4]: ≥ 1000 µM

**Q.** For `CC1=C(CC(=O)O)c2cc(F)ccc2/C1=C\c1ccc(S(C)(=O)=O)cc1` [Sulindac sulfone 132, sulindac sulfone], which AUC in plasma ([3]; BALB/c nude) is on record?
**A.** Its AUC in plasma is 142.4.

**Q.** And the Cmax ([3]; BALB/c nude)?
**A.** Its Cmax is 10.4 µM.

**Q.** And the Tmax in lung ([3]; BALB/c nude)?
**A.** The Tmax in lung was 8 h.

**Q.** What about the Tmax in plasma ([3]; BALB/c nude) of the same molecule?
**A.** Its Tmax in plasma is 8 h.

**Q.** What about the AUC in lung [3] of the same molecule?
**A.** Its AUC in lung is 57.5 nmol·h/g.

**Q.** What about the Cmax in lung [3] of the same molecule?
**A.** Its Cmax in lung is 4.6 nmol/g.

**Q.** What does the source list for `COc1ccc2c(c1)c(CC(=O)O)c(C)n2C(=O)c1ccc(Cl)cc1` [indomethacin 127, indomethacin]?
**A.** AUC(0-t) [5]: 500 µM·h; Cmax [5]: 127 µM

**Q.** Which “genotoxicity (reverse mutations)” value [6] does the source give for `CCOP(=O)(OCC)OCCc1ccc(OC(=O)Cc2c(C)n(C(=O)c3ccc(Cl)cc3)c3ccc(OC)cc23)cc1` [PTI 93, [1-(4-Chloro-benzoyl)-5-methoxy-2-methyl-1H-indol-3-yl]-acetic acid 4-[2-(diethoxy-phosphoryloxy)-ethyl]-phenyl ester] here?
**A.** The value was “no genotoxicity”.

**Q.** And the “time of maximum plasma concentration of intact PTI” value [7]?
**A.** Its value is 2 h.

**Q.** And the “plasma level of intact PTI 4 hours post administration” value ([7]; 4 hours)?
**A.** The value was “undetectable”.

**Q.** And the “cardiotoxicity (histology, treated versus healthy control mice)” value [8]?
**A.** The value was “no differences”.

**Q.** What about the “reduction of tumor volume” value ([9]; 10 mg/kg/day oral gavage for 2 weeks) of the same molecule?
**A.** The value was 85%.

**Q.** What about the “reduction of tumor volume” value ([9]; 15 mg/kg/day oral gavage for 2 weeks) of the same molecule?
**A.** The value was 96%.

**Q.** With `CCCC(CCC)C(=O)Oc1ccc(COP(=O)(OCC)OCC)cc1` [PV 116, Phosphovalproic Acid] as the molecule, how does the “fold-increase of annexinV (+) cells” value [10] read?
**A.** The value was 3.0 fold.
